The values that follow come from US20260138948A1, “N-SUBSTITUTED INDOLES AS 5-HYDROXYTRYPTAMINE (5-HT) SEROTONIN RECEPTOR AGONISTS AND ANTAGONISTS” (Terran Biosciences Inc., priority 2021, published 2026).

Molecules are shown by their SMILES.

One data set has as its target T1, 5-HT2C receptor (Homo sapiens, UniProt P28335).
T1 construct: host or cells: unnamed cell lines
T1 sequence (P28335 33-458): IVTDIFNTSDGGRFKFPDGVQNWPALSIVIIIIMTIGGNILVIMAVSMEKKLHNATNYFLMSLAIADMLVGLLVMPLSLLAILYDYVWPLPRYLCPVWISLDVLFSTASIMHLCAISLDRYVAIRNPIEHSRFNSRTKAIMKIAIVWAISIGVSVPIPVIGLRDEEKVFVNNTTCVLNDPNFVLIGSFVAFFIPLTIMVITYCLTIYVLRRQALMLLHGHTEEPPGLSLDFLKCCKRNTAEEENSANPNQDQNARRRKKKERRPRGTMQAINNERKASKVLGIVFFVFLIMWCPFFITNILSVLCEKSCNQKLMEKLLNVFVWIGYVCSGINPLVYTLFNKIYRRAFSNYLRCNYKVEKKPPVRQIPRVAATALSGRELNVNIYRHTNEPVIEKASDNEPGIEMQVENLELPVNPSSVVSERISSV
Kind of data set: Calcium mobilization assay, antagonist format, 5-HT2C. The class given is cell-based. Particulars: for inhibition at 10 µM: agonist challenge at EC80. The protocol: (§1) Protocol—in vitro testing at select 5-hydroxytryptamine (5-HT; serotonin) receptors was conducted.
(§2) • 1. Cell lines were expanded from freezer stocks according to standard procedures. • 2. Cells were seeded in a total volume of 20 μL into black-walled, clear-bottom, Poly-D-lysine coated 384-well microplates and incubated at 37° C. for the appropriate time prior to testing.
(§3) • 1. Assays were performed in 1× Dye Loading Buffer consisting of 1× Dye, 1× Additive A and • 2.5 mM Probenecid in HBSS/20 mM Hepes. Probenicid was prepared fresh. • 2. Cells were loaded with dye prior to testing. Media was aspirated from cells and replaced with 20 μL Dye Loading Buffer. • 3. Cells were incubated for 30-60 minutes at 37° C.
(§4) • 1. For antagonist determination, cells were pre-incubated with sample followed by agonist challenge at the EC80 concentration. • 2. Intermediate dilution of sample stocks was performed to generate 3× sample in assay buffer. • 3. After dye loading, cells were removed from the incubator and 10 μL 3× sample was added. Cells were incubated for 30 minutes at room temperature in the dark to equilibrate plate temperature. Vehicle concentration was 1%. • 4. Compound antagonist activity was measured on a FLIPR Tetra (MDS). Calcium mobilization was monitored for 2 minutes and 10 μL EC80 agonist in HBSS/20 mM Hepes was added to the cells 5 seconds into the assay.
(§5) • 1. Compound activity was analyzed using CBIS data analysis suite (ChemInnovation, CA). • 2. For agonist mode assays, percentage activity is calculated using the following formula: % Activity=100%×(mean RFU of test sample−mean RFU of vehicle control)/(mean MAX RFU control ligand −mean RFU of vehicle control). • 3. For positive allosteric mode assays, percentage modulation was calculated using the following formula: % Modulation=100%×((mean RFU of test sample−mean RFU of EC20 control)/(mean RFU of MAX control ligand −mean RFU of EC20 control)). • 4. For antagonist and negative allosteric modulation mode assays, percentage inhibition is calculated using the following formula: % Inhibition=100%×(1−(mean RFU of test sample−mean RFU of vehicle control)/(mean RFU of EC80 control−mean RFU of vehicle control)).
[…] For research comparative purposes, a literature compound—(R)-1-(5-methoxy-1H-indol-1-yl)-N,N-dimethylpropan-2-amine (AAZ-A-154) (Cell 2021, 184, 2779-2792.e18)—was included in the screening assays. Additionally, 5-hydroxytryptamine/serotonin (5-HT) was included in the screening assay as a positive control agonist, and SB242084 was used in the screening assay as a literature 5-HT2C antagonist positive control. […] Compounds 2, 3 and 93 each achieved greater than 75% antagonism of the 5-HT2C receptor, with compounds 3 and 93 achieving approximately 98% and 97% antagonism, respectively.

Data set [1] has as its target T2, 5-HT2A receptor (Homo sapiens, UniProt P28223).
T2 construct: host or cells: unnamed cell lines
Kind of data set: Calcium mobilization assay, antagonist format, 5-HT2A. The class given is cell-based. Particulars: @100 nM; agonist challenge at EC80. Here is the method:
as §1, §2, §3, §4, §5
Compounds were evaluated as 5-HT2A antagonists at 100 nM (one hundred nanomolar), or may be evaluated at a higher concentration. For research comparative purposes, a literature compound—(R)-1-(5-methoxy-1H-indol-1-yl)-N,N-dimethylpropan-2-amine (AAZ-A-154) (Cell 2021, 184, 2779-2792.e18)—was included in the screening assays. Additionally, 5-hydroxytryptamine/serotonin (5-HT) was included in the screening assay as a positive control agonist, and Altanserin HCl was included as a 5-HT2A antagonist positive control.
Background: Calcium flux is commonly read through the fluorescence of an indicator in the cells.

For a further data set, the target named is T3, 5-HT2B receptor (Homo sapiens, UniProt P41595).
T3 construct: host or cells: unnamed cell lines
T3 sequence (P41595 whole entry): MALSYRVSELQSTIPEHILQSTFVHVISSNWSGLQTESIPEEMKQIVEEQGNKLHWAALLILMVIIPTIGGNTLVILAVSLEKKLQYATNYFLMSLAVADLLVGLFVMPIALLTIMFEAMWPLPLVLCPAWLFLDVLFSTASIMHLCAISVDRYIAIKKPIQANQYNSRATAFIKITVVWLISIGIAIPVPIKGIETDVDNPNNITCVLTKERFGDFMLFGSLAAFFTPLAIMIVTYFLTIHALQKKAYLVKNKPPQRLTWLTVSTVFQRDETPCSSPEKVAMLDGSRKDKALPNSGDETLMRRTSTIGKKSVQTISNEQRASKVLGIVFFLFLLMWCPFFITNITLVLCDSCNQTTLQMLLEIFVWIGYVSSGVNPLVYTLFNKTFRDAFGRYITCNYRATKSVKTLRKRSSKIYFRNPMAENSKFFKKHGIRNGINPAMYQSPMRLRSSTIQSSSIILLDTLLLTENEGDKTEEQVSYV
Kind of data set: Calcium mobilization assay, agonist format, 5-HT2B. The class given is cell-based. Particulars: % activity relative to control ligand, read-out: 5-HT2B agonist efficacy @5 µM. Here is the method:
as §1, §2, §3
(§6) • 1. For agonist determination, cells were incubated with sample to induce response. • 2. After dye loading, cells were removed from the incubator and 10 μL HBSS/20 mM Hepes was added. 3× vehicle was included in the buffer when performing agonist dose curves to define the EC80 for subsequent antagonist assays. Cells were incubated for 30 minutes at room temperature in the dark to equilibrate plate temperature. • 3. Intermediate dilution of sample stocks was performed to generate 4× sample in assay buffer. • 4. Compound agonist activity was measured on a FLIPR Tetra (MDS). Calcium mobilization was monitored for 2 minutes and 10 μL 4× sample in HBSS/20 mM Hepes was added to the cells 5 seconds into the assay.
as §5

The nature of data set [2]: Metabolic stability in human liver microsomes. The class given is in vitro ADME. Particulars: for half-life at 1 μM / microsomal CLint at 1 μM / CLint scaled at 1 μM: liver microsomes (pooled); for half-life at 1 μM: human liver microsomes 0.5 mg/mL, test compound 1.0 μM, 37° C., NADPH; for microsomal CLint at 1 μM: intrinsic clearance = 0.693/T1/2/mg microsome protein per mL, read-out: CLint(mic); for CLint scaled at 1 μM: human, scaled from CLint(mic) with 45 mg microsomal protein/g liver and 20 g liver/kg. Here is the method:
The test compound at 1.0 μM in singlet, or positive controls including Testosterone (CYP3A4 substrate), Propafenone (CYP2D6 substrate) or Diclofenac (CYP2C9 substrate) was incubated with the liver microsomes (Corning, Xenotech, or other credible vendor, pooled from multiple donors) at 0.5 mg/mL, respectively. The mixture was warmed up at 37° C. for 10 minutes and the reactions were initiated by the addition of a NADPH regenerating system (˜1.0 mM). The test compound incubated with the liver microsomes at 37° C. without the NADPH regenerating system served as the negative control reaction.
The reaction samples were removed at multiple time points (such as 0, 5, 15, 30, 45 and 60 minutes) and the sample without NADPH (NCF) was removed at 60 minutes. All the samples were immediately mixed with cold acetonitrile containing internal standard (IS) to stop the reaction.
Samples were analyzed by LC/MS/MS and the disappearance of test compound were assessed base on peak area ratios of analyte/IS (no standard curve). The microsomal intrinsic clearance and T1/2 values were calculated using the following equation: […]
The microsomal intrinsic clearance and T1/2 values were calculated using the following equation: […]
In these experiments the comparator compound was a suitable reference standard. In one embodiment the comparator compound was (R)-1-(5-methoxy-1H-indol-1-yl)-N,N-dimethylpropan-2-amine.

The target in data set [3] is T2, 5-HT2A receptor. The experiment in a line: Calcium mobilization assay, agonist format, 5-HT2A. The class given is cell-based. Particulars: % activity relative to control ligand, read-out: 5-HT2A agonist efficacy @10 µM. The protocol:
as §1, §2, §3, §6, §5

Another data set deals with 5HT2A sensor. The settings on record: general statement on known hallucinogens and non-hallucinogenic congeners; cited from earlier work.
A further data set concerns C57BL/6J mice. The experiment in a line: Head-twitch response (HTR) in mice. Particulars: 10 mg/kg ip, male C57BL/6J mice, 40 min post-dose; FIGS. 2 and 3. The class given is in vivo, mouse. The protocol:
Head-Twitch Response (HTR). The head-twitch response assay is performed as is known to those of skill in the art using both male and female C57BL/6J mice (3 per treatment). The mice are obtained and are approximately 8 weeks old at the time of the experiments. Compounds are administered via intraperitoneal injection (5 mL/kg) using 0.9% saline as the vehicle. As a positive control, 5-MeO-DMT fumarate (2:1 amine/acid) was utilized. Behavior was videotaped, later scored by two blinded observers, and the results were averaged (Pearson correlation coefficient=0.93).
24 Male C57BL/6J mice (approximately 25 g) were group housed in a stock room. Animals were maintained under a 12 h light/dark cycle, at 23° C. with humidity controlled according to Home Office regulations.
Compounds 1, 2, 4, 151, 93, AAZ literature compound and 5-MeO-DMT (all compounds supplied as free bases) were each formulated in DMSO:saline [10:90] at a concentration of 2 mg/mL to give a dose of 10 mg/kg when administered ip in a 5 mL/kg dosing volume. […]
At T=0 h, groups of 3 mice were dosed intraperitoneally with either Vehicle, Compound 1, Compound 2, Compound 4, Compound 151, Compound 93, AAZ literature compound, or 5-MeO-DMT each at 10 mg/kg. Following dosing, mice were replaced into the observation cages and head twitch behavior was monitored for 40 min after agonist dosing.

T2 sequence (P28223 whole entry): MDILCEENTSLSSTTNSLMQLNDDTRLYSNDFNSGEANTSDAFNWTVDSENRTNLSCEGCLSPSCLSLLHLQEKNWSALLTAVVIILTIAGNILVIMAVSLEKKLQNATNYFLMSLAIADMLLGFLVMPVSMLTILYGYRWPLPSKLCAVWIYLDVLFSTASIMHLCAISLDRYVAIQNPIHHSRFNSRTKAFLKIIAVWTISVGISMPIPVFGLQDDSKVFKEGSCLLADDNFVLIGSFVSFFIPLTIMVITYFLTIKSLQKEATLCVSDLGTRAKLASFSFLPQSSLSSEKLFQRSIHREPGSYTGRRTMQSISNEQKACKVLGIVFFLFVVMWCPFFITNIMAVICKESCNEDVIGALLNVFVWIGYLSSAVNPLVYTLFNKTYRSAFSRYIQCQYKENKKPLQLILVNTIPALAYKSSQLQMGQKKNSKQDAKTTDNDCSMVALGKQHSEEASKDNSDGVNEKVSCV

As to `COc1ccc2c(ccn2C[C@@H](C)N(C)C)c1` [AAZ-A-154, (R)-1-(5-methoxy-1H-indol-1-yl)-N,N-dimethylpropan-2-amine, reference compound], at 5-HT2C receptor, the inhibition (as a rule, the relative decrease from the control value, in per cent) at 10 µM was determined as 35%. In addition, the inhibition at 0.1 µM on 5-HT2A receptor [1] was found to be 3.2%. Also, the activation at 5 µM at 5-HT2B receptor was -2.9%. In data set [2], the half-life – broadly, the time in which the quantity being followed falls by half – at 1 μM worked out at 1.42 h and the CLint scaled – broadly, the capacity of the preparation to metabolise the compound, expressed as a volume cleared per time – at 1 μM was determined as 14.8 mL/min/kg. Also, in data set [2] (human liver microsomes), the microsomal CLint at 1 μM was 16.4 µL/min/mg. Also, the activation at 10 µM on 5-HT2A receptor [3] amounted to 1%.
As for `C[C@H](Cn1ccc2c3c(ccc21)OCCC3)N(C)C` [Compound 3, (R)-1-(8,9-dihydropyrano[3,2-e]indol-3(7H)-yl)-N,N-dimethylpropan-2-amine], the “antagonism of the 5-HT2C receptor” value on 5-HT2C receptor (10 μM (ten micromolar)) is “approximately 98%”. In addition, at 5-HT2C receptor, the inhibition at 10 µM is 98.1%. In addition, at 5-HT2A receptor [1], the inhibition at 0.1 µM was -7.3%. On 5-HT2B receptor, the activation at 5 µM amounted to 1%. Besides, the activation at 10 µM at 5-HT2A receptor [3] was found to be 9.7%.
On to `C[C@H](Cn1ccc2cc(S(=O)(=O)C3CC3)ccc21)N(C)C` [Compound 4, (2R)-1-(5-cyclopropylsulfonylindol-1-yl)-N,N-dimethyl-propan-2-amine], for which the inhibition at 10 µM on 5-HT2C receptor came to 6.2%. For the same molecule, on 5-HT2A receptor [1], the inhibition at 0.1 µM is -9.1%. For the same molecule, the activation at 5 µM at 5-HT2B receptor was -0.6%. Further, the activation at 10 µM at 5-HT2A receptor [3] is -1.5%.
On to `[2H]C([2H])([2H])[C@@]([2H])(N(C)C)C([2H])([2H])n1ccc2cc(OC)ccc21` [Compound 5, (2R)-1,1,1,2,3,3-hexadeuterio-3-(5-methoxyindol-1-yl)-N,N-dimethyl-propan-2-amine], for which the inhibition at 10 µM on 5-HT2C receptor came to 38.1%. Moreover, on 5-HT2A receptor [1], the inhibition at 0.1 µM is -2.7%. Further, the activation at 5 µM on 5-HT2B receptor turned out to be 3%. In addition, in data set [2] (human liver microsomes, comment on Table 2), the “difference in half-life and intrinsic clearance compared with reference compound (R)-1-(5-methoxy-1H-indol-1-yl)-N,N-dimethylpropan-2-amine” value is “significant and beneficial differences in half-life and intrinsic clearance”. In data set [2], the half-life at 1 μM is 1.59 h and the CLint scaled at 1 μM turned out to be 13.5 mL/min/kg. Also, the microsomal CLint at 1 μM in data set [2] (human liver microsomes) was determined as 15 µL/min/mg. Further, the activation at 10 µM on 5-HT2A receptor [3] was 2%.
`COc1ccc2[nH]cc(CCN(C)C)c2c1` [Compound 5-MeO-DMT]: in the data set on 5HT2A sensor, the “activation of the 5HT2A sensor assay in agonist mode” value is reported as “activate the 5HT2A sensor assay in agonist mode”. Further, the “head-twitch response compared to placebo” value with C57BL/6J mice is reported as “produced significant increases in head-twitch”.
